Experimental findings from PMC5063506, “A Novel Class of Small Molecule Agonists with Preference for Human over Mouse TLR4 Activation” (PLoS ONE, 2016) are described below.

A short description of series [1]: Intrinsic clearance in presence of rat hepatocytes. In kind it is in vitro ADME. The following applies: read-out: Clint rh (intrinsic clearance, rat hepatocytes). The text has this:
(§1) Fig 2 Optimization stages of Ugi products as TLR4 agonists. *Human TLR-4 NFκB SEAP reporter assays; protocol as described in Methods. Data are reported as pEC50, or negative log of the EC50 values. **Clint rh / hm represents intrinsic clearance in presence of rat hepatocytes (μL/min/10^6 cells) and human microsomes (μL/min/mg protein). […] Thus a drug molecule with LogD >4 might be considered to be very lipophilic and therefore more likely to suffer from rapid metabolic turnover, poor solubility and receptor promiscuity; whereas a LogD range of 1–3 is more likely to be associated with optimal physicochemical and drug-like properties. ^††Solubility was measured by dissolution of solid samples in buffer at pH 7.4.

Series [2] is described as follows: Intrinsic clearance in presence of human microsomes. In kind it is in vitro ADME. Particulars: read-out: Clint hm (intrinsic clearance, human microsomes).
Description: as §1

The nature of series [3]: Solubility by dissolution of solid samples in buffer. The series is classed as physicochemical. Particulars: aqueous buffer, thermodynamic from solid; solid samples in buffer at pH 7.4.
Description: as §1

The target in series [4] is T1, human TLR4 (Homo sapiens, UniProt O00206+Q9Y6Y9).
T1 construct: expressed in transfected cells; host or cells: HEK293 with stably integrated pNiFty2-SEAP reporter
T1 sequence (O00206 24-839): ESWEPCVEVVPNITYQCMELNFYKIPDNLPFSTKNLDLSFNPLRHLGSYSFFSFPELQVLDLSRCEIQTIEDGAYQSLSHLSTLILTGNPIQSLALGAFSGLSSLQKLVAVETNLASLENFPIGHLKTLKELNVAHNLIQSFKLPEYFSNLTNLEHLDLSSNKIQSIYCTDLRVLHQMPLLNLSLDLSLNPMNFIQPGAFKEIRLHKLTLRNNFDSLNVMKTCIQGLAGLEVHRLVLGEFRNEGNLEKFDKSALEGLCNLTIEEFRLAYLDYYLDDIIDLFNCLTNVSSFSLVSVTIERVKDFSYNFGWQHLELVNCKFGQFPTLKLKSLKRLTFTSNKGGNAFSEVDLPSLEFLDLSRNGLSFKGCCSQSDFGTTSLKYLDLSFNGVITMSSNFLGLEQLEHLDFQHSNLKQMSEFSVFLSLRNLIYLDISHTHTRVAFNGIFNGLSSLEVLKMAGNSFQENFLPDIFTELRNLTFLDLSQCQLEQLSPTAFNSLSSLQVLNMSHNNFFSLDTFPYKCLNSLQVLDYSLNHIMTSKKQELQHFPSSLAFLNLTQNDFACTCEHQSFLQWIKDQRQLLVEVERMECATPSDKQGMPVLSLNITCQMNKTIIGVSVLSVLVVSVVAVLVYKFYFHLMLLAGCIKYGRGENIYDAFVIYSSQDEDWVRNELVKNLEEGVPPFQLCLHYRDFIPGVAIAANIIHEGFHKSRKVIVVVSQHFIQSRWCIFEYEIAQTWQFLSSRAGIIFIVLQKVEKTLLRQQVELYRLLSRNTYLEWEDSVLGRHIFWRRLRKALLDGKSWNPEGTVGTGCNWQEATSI
T1 sequence (Q9Y6Y9 19-160): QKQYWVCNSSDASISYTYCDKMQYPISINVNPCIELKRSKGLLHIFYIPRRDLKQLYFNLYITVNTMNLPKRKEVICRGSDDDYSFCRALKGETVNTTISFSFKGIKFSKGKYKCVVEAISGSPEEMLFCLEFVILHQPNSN
In words: Human TLR4 NFκB SEAP reporter gene assay in hTLR4-transfected HEK293 cells. In kind it is cell-based. Particulars: for EC50: NFκB SEAP reporter, hTLR4-transfected HEK293 cells, 20 h, read-out: Human TLR4 pEC50 (converted). As to the method:
(§2) HEK293 cells stably transfected with pNiFty2-SEAP reporter plasmid were transiently transfected with either human or mouse TLR4 (pUNO expression vector), in combination with either human or mouse CD14/MD2 (pDUO expression vector). Transient transfectants were seeded in Dulbecco’s Modified Eagle Medium, FCS 10% (v/v), 2 mM l glutamine and non-essential amino acids. Cells were seeded in tissue culture treated clear flat bottom polystyrene 96 well plates (Costar, 3598) at 1e4 cells/well. Concentration-response curves were generated by addition of test compounds and incubation for 20 h at 37°C in an atmosphere of 5% CO2. LPS (E. coli 0111:B4, Ultra-pure, Invivogen) or PHAD (Avanti Polar Lipids) was used as a positive control. The SEAP released was quantified using p nitrophenyl phosphate as a substrate, and the absorbance at 405 nm was measured at 30 second intervals over several minutes using a microplate reader. Some data are recorded as the pEC50, the negative log of the EC50 value. Other data generated from these reporter cell lines were converted to AUC (area under the curve) values by interpolation of fitted cubic spline curve between OD value and log concentration levels. The calculation is performed using MESS package in statistical software R (www.r-project.org/).
(A reporter such as luciferase makes a cellular process visible.)

The nature of series [5]: LogD, octanol/water distribution coefficient. The series is classed as physicochemical. Particulars: pH 7.4; octanol/water distribution coefficient at pH7.4.
Description: as §1

Series [6] relates to TLR4/MD2 KO BMDCs. In words: Cytokine induction in BMDCs of mTLR4/MD2 knockout mice. The series is classed as cell-based, mouse. Particulars: 24 h, 1 μg/ml TLR4 agonists, 2 μM R848. The source says:
(§3) Femur/tibia bones from w.t. C57BL/6, TLR4/MD2 KO, and hTLR4/MD2 KIKO mice were soaked in 10% FBS-RPMI. Muscle and fat tissue was stripped off from the bones with a scalpel, then, bone pairs from individual mice were transferred to 100 mm petri dishes. Femur and tibia bones were separated and the ends cut with dissecting scissors so that bone marrow cells (BMCs) could be removed by flushing the interior of the bones using a 21 G needle and warm 10% FBS-RPMI. BMCs were passed through a 70 μm strainer, followed by RBC lysis. BMCs were cultured in a 70 mm flask for 24 h in the presence of 10 ng/ml (200 unit/ml) of mGM-CSF. Non-adherent cells were collected, washed, and seeded in a 175 cm flask in the presence of 20 ng/ml of mGM-CSF. Every two days, the cells were fed with fresh media and 20 ng/ml mGM-CSF. On day 9, cells were harvested, washed, and stained for CD11c/CD11b expression to determine BMDC density. BMDCs were cultured at 50,000 cells/well for 24 h with 1 μg/ml MPL, LPS, Ugi compounds, or 2 μM R848 (InVivogen).
(§4) Fig 10 Ugi compounds activate mouse BMDCs that express human TLR4/MD2. Bone marrow cells were isolated from femur/tibia bones of w.t. […] BMDCs were harvested at day 9, washed, counted, and stimulated in vitro for 24 h with 1 μg/ml TLR4 agonists and 2 μM R848. SNs were analyzed via mouse MILLIPLEX kits. Data are expressed as the means of 2 mice and are representative of 2 studies.

The test system of series [7] is C57BL/6 w.t. BMDCs. Nature of the series: Cytokine induction in BMDCs of w.t. C57BL/6 mice. The series is classed as cell-based, mouse. Particulars: 24 h, 1 μg/ml TLR4 agonists, 2 μM R848.
Description: as §3, §4

For series [8], the target named is T2, mouse TLR4/MD2 (Mus musculus, UniProt Q9JHF9+Q9QUK6).
T2 construct: host or cells: HEK293
T2 sequence (Q9QUK6 26-835): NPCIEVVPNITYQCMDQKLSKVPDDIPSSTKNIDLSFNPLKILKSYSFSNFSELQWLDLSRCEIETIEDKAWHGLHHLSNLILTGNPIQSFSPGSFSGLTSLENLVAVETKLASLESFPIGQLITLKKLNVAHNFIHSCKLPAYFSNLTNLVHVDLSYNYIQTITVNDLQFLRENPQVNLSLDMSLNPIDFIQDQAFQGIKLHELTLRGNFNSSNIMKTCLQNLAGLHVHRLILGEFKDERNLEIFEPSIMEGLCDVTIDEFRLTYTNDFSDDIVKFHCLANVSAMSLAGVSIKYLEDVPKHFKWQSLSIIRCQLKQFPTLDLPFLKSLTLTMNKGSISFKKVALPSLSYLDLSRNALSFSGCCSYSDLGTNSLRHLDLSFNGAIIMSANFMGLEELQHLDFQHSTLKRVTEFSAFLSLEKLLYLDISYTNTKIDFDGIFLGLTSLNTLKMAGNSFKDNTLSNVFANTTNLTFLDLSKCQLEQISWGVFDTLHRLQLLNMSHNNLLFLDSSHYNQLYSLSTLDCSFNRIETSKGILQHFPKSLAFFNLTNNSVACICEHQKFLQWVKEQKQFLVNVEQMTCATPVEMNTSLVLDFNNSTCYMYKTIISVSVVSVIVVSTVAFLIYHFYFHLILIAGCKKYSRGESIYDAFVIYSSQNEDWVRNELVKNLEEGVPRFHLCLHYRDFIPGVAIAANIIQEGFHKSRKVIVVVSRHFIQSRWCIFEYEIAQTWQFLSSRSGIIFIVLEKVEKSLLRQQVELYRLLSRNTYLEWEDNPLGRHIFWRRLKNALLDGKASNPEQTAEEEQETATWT
T2 sequence (Q9JHF9 19-160): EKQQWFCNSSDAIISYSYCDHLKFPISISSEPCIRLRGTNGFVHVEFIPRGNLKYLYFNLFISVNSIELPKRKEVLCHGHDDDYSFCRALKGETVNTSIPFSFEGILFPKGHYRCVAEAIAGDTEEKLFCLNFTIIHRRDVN
Nature of the series: mTLR4/MD2-HEK293 transfectant SEAP (QUANTI-Blue) dose response, AUC. The following applies: 1 μg/ml to 4 ng/ml, 24 h, SEAP OD 650 nm vs log concentration. In kind it is cell-based. The procedure:
as §2, with “Cells” for “HEK293 cells stably transfected with pNiFty2-SEAP reporter plasmid were transiently transfected with either human or mouse TLR4 (pUNO expression vector), in combination with either human or mouse CD14/MD2 (pDUO expression vector). Transient transfectants were seeded in Dulbecco’s Modified Eagle Medium, FCS 10% (v/v), 2 mM l glutamine and non-essential amino acids. Cells”
(§5) Fig 4 Ugi compounds preferentially activate TLR4-HEK transfectants expressing human MD2. A-B) HEK293 cells transfected with human TLR4/MD2 or mouse TLR4/MD2 (InVivogen) were stimulated with TLR4 agonists including MPL, PHAD, and Ugi compounds at 1 μg/ml to 4 ng/ml and with LPS at 25 ng/ml to 64 pg/ml for 24 h. SNs were analyzed for SEAP content by the QUANTI-Blue assay (InVivogen) and analysis at 650 nm by spectrophotometer. AUC (area under the curve) values were calculated as in Methods. No AUC value was calculated for LPS since it was utilized with a different dose range. C) HEK transfectants with cis- or trans-species expression of TLR4, MD2, and CD14 were stimulated with Ugi compounds in a dose response range of 9 μM to 1 nM or with LPS (boxes) at 75 ng/ml to 5 pg/ml for 48 h. Data was obtained as Vmax calculated over the initial linear portion of the kinetic absorbance measurements. The AUC (area under the curve) value for the dose response curve of Vmax vs log10 (molar units) was calculated for each compound using Trapezoidal rule. TEXT PRINTED IN THE PICTURE: (A) MPL: hTLR4-HEK AUC: 0.55 | (A) AZ617: hTLR4-HEK AUC: 5.90 | (A) AZ618: hTLR4-HEK AUC: 6.56 | (A) AZ839: hTLR4-HEK AUC: 6.00 | (A) AZ161: hTLR4-HEK AUC: 5.54 | (A) AZ902: hTLR4-HEK AUC: 7.04 | (A) GLA: hTLR4-HEK AUC: 3.75 | (B) MPL: mTLR4-HEK AUC: 13.27 | (B) AZ617: mTLR4-HEK AUC: 0.89 | (B) AZ618: mTLR4-HEK AUC: 1.03 | (B) AZ839: mTLR4-HEK AUC: 0.93 | (B) AZ161: mTLR4-HEK AUC: 0.99 | (B) AZ902: mTLR4-HEK AUC: 1.55 | (B) GLA: mTLR4-HEK AUC: 14.24

In series [9] the target is T3, human TLR4/MD2 (Homo sapiens, UniProt O00206+Q9Y6Y9).
T3 construct: host or cells: HEK293
T3 sequence (O00206 24-839): as the sequence (O00206 24-839) above
T3 sequence (Q9Y6Y9 19-160): as the sequence (Q9Y6Y9 19-160) above
Nature of the series: hTLR4/MD2-HEK293 transfectant SEAP (QUANTI-Blue) dose response, AUC. The series is classed as cell-based. The following applies: 1 μg/ml to 4 ng/ml, 24 h, SEAP OD 650 nm vs log concentration. The procedure:
as §2, with “Cells” for “HEK293 cells stably transfected with pNiFty2-SEAP reporter plasmid were transiently transfected with either human or mouse TLR4 (pUNO expression vector), in combination with either human or mouse CD14/MD2 (pDUO expression vector). Transient transfectants were seeded in Dulbecco’s Modified Eagle Medium, FCS 10% (v/v), 2 mM l glutamine and non-essential amino acids. Cells”
as §5

Series [10] relates to cytochrome P450 enzymes. In words: Inhibition of cytochrome P450 enzymes (unpublished data). In kind it is in vitro ADME. The following applies: compared with earlier-stage, more lipophilic Ugi compounds.

In general, solubility refers to the dissolved amount per volume that the medium holds. High values mean much dissolved substance, low ones little dissolved substance. In general, logD refers to lipophilicity at a set pH, counting ionised and neutral species. The low end stands for lower lipophilicity, the high end for higher lipophilicity.

Converted amounts (≈) assume the structure as drawn. Like-named read-outs stand apart in the source and are kept apart here.

As to `COc1ccc(N(C(=O)c2[nH]c(-c3ccccc3)cc2C)C(C(=O)NC2CCCC2)c2ccncc2)cc1` (stereo not shown) [AZ126, N-(2-(cyclopentylamino)-2-oxo-1-(pyridin-4-yl)ethyl)-N-(4-methoxyphenyl)-3-methyl-5-phenyl-1H-pyrrole-2-carboxamide], the hepatocyte CLint in series [1] (rat) worked out at 28 µL/min/1e6 cells. Also, the microsomal CLint in series [2] (human) was 56 µL/min/mg. Further, the concentration in solution in [3] (solubility) was 0.1 µM (≈ 0.0509 µg/mL). Also, the EC50 in series [4] was 2.51 µM. Moreover, the log distribution coefficient (logD) in series [5] is more than 4.5.
For `CCOCc1nc2c(N)nc3ccccc3c2n1CC(C)(C)O` [R848], the “cytokine response of mTLR4/MD2 knockout BMDCs” value in series [6] is on record as “retained”. Moreover, in series [7], the “cytokine response of C57BL/6 w.t. BMDCs” value is listed as “strong response”.
As to `Cc1cccc(CN(C(=O)c2cc(-c3ccccc3)n(-c3ccccc3)n2)C(C(=O)NC2CCCC2)c2ccc(CC(=O)O)cc2)c1C` (stereo not shown) [AZ839], in series [8], the “mTLR4-HEK AUC” value was determined as 0.93. The EC50 in [4] was 0.0251 µM. Moreover, the “hTLR4-HEK AUC” value in series [9] is reported as 6.00. In [5], this compound gave a logD of 3.62.
`C#Cc1ccc(C(C(=O)NC2CCCC2)N(C(=O)c2cc(-c3ccccc3)n(-c3ccccc3)n2)c2ccc(OC)cc2)cc1` (stereo not shown) [AZ606]: in series [1], the hepatocyte CLint worked out at 36 µL/min/1e6 cells. Moreover, the microsomal CLint in series [2] was 39 µL/min/mg. For the same compound, in series [3], the solubility worked out at 2.2 µM (≈ 1.31 µg/mL). Moreover, the “increase in potency in the hTLR4-HEK assay” value in series [4] (relative to AZ126) is given as 10 fold. For the same compound, the “inhibition of one or more cytochrome P450 enzymes” value in [10] is “greatly reduced”. Further, the logD in [5] was more than 4.5.
Consider `CCCCCCCCCCCCCC(=O)O[C@H](CCCCCCCCCCC)CC(=O)O[C@@H]1[C@@H](NC(=O)C[C@H](CCCCCCCCCCC)OC(=O)CCCCCCCCCCCCC)[C@H](OC[C@H]2O[C@H](O)[C@H](NC(=O)C[C@H](O)CCCCCCCCCCC)[C@@H](OC(=O)C[C@H](O)CCCCCCCCCCC)[C@@H]2O)O[C@H](CO)[C@H]1OP(=O)(O)O` [GLA, glucopyranosyl lipid A, reference compound], for which the “mTLR4-HEK AUC” value in series [8] is recorded as 14.24. For the same compound, the “hTLR4-HEK AUC” value in series [9] was 3.75.
